Entries after “also recorded” stand apart in the source; their conditions may differ.
Legend:
isocitrate dehydrogenase = molecular target: T1, isocitrate dehydrogenase (Rattus norvegicus, UniProt Q99NA5); assay: Rat brain isocitrate dehydrogenase with RAP; format: biochemical; details: 20 μM RAP
T1 construct: following enzymes in rat brain subcellular fractions: α-ketoglutarate, isocitrate; from tissue; host or cells: rat brain subcellular fractions
Protocol: (§1) Each of the enzymes was assayed by procedures in which change of absorbance at 340 nm due to NADH was followed essentially as described by Bergmeyer (1974, Methods of Enzymatic Analysis, 2nd Eng. Ed., Verlag Chemie Weinheim Academic Press, N.Y.) with the following exceptions. Phosphofructokinase was assayed according to the method of Lai et al (1984, J. Neurochem., 42:438-446). NAD^+ -linked isocitrate dehydrogenase was assayed as described by Lai and Clark (1976, Biochem. J., 154:423-432). Pyruvate and α-ketoglutarate dehydrogenase complexes were respectively assayed according to the methods of Lai and Sheu (1985, J. Neurochem., 45:1861-1868) and Lai and Cooper (1986) (J. Neurochem, 47:1376-1386).

hexokinase = molecular target: T2, hexokinase (Rattus norvegicus, UniProt P05708); assay: Rat brain hexokinase with RAP; format: biochemical; details: 20 μM RAP
T2 construct: following enzymes in rat brain subcellular fractions: α-ketoglutarate, isocitrate and cytosolic malate dehydrogenases, and hexokinase; from tissue; host or cells: rat brain subcellular fractions
T2 sequence (P05708 whole entry): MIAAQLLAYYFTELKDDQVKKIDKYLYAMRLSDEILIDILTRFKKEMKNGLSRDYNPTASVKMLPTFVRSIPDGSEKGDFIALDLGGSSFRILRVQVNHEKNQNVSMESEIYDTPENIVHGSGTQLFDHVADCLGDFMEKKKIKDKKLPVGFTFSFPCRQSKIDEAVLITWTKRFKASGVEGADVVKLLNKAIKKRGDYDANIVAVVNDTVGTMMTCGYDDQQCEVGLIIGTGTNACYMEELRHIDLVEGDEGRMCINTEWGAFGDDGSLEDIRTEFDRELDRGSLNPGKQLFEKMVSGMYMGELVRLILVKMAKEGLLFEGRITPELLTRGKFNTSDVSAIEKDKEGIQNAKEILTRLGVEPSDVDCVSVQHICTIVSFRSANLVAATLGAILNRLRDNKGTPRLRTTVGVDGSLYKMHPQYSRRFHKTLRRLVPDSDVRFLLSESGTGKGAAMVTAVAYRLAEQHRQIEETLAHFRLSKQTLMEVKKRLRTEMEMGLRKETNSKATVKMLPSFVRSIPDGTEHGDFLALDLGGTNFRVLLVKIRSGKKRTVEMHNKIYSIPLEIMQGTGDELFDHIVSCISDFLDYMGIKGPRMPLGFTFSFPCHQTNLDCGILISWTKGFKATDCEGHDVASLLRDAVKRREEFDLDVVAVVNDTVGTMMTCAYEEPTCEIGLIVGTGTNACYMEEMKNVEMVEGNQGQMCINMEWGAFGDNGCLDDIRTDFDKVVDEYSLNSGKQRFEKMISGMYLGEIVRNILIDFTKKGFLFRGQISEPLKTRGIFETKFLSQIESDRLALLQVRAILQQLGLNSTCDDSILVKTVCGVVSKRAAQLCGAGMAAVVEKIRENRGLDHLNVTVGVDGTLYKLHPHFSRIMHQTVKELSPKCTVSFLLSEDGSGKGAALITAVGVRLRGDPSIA
Protocol: as §1

glutamate dehydrogenase = molecular target: T3, glutamate dehydrogenase (Rattus norvegicus, UniProt P10860); assay: Rat brain glutamate dehydrogenase with RAP; format: biochemical; details: 20 μM RAP
T3 construct: Commercial and rat brain glutamate dehydrogenases; from tissue; host or cells: rat brain
T3 sequence (P10860 54-558): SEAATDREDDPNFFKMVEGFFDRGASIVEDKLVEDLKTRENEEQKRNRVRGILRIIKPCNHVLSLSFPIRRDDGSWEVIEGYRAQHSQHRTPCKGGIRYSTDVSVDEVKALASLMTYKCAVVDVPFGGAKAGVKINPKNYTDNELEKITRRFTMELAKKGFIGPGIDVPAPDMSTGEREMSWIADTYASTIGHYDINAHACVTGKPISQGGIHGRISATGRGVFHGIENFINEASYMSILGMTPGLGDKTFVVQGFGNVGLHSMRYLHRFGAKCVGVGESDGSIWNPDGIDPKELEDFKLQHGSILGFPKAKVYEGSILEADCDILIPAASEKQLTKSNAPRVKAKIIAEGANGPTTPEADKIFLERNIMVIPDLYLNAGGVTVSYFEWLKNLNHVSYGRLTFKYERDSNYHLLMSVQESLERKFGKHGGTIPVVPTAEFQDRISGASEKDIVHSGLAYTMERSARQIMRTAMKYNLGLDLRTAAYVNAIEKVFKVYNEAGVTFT
Protocol: as §1

[1] = molecular target: T4, mitochondrial pig heart malate dehydrogenase (Sus scrofa, UniProt P00346); assay: Commercial mitochondrial malate dehydrogenase with RAP; format: biochemical; details: 20 μM RAP
T4 construct: purchased Boehringer Mannheim Corp. (Indianapolis); host or cells: pig heart
T4 sequence (P00346 25-338): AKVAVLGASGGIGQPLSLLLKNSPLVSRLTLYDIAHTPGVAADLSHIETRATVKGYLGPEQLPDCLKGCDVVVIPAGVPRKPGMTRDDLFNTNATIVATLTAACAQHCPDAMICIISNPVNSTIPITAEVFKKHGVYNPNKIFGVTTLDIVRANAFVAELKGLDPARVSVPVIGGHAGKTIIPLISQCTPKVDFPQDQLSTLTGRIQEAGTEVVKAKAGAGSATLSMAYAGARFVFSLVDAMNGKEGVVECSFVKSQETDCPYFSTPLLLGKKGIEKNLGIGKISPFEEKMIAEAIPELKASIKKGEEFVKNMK
Description: Enzymes and enzyme assays. Rabbit muscle glyceraldehyde-3-phosphate dehydrogenase (80 U/mg: ammonium sulfate suspension), rabbit muscle glycerol-3-phosphate dehydrogenase (40 U/mg; ammonium sulfate suspension),beef liver glutamate dehydrogenase (120 U/mg: in 50% glycerol), mitochondrial pig heart malate dehydrogenase (1100 U/mg; in 50% glycerol) and yeast hexokinase (140 U/mg; ammonium sulfate suspension) were purchased from Boehringer Mannheim Corp. (Indianapolis). Beef heart lactate dehydrogenase (280 U/mg) was purchased from Worthington Biochemical Corporation (Freehold, N.J.). Porcine heart L-alanine aminotransferase (130 U/mg), rabbit muscle phosphofructokinase (140 U/mg; ammonium sulfate suspension), bovine heart α-ketoglutarate (8 U/mg) and pyruvate (5 U/mg) dehydrogenase complexes, sodium pyruvate, L-methionine-SR-sulfoximine, DL-vinylglycine, NAD^+, NADH and NAD^+ analogues (3-acetylpyridine, thionicotinamide, and 3-pyridinealdehyde adenine dinucleotides) were purchased from Sigma Chemical Company (St. Louis, Mo.).
Each of the enzymes was assayed by procedures in which change of absorbance at 340 nm due to NADH was followed essentially as described by Bergmeyer (1974, Methods of Enzymatic Analysis, 2nd Eng. Ed., Verlag Chemie Weinheim Academic Press, N.Y.) with the following exceptions. […]

[2] = molecular target: T5, mitochondrial malate dehydrogenase (Rattus norvegicus, UniProt P04636); assay: Rat brain mitochondrial malate dehydrogenase with RAP; format: biochemical; details: 20 μM RAP
T5 construct: Commercial and rat brain glutamate dehydrogenases and mitochondrial malate dehydrogenases were only slightly; from tissue; host or cells: rat brain
T5 sequence (P04636 25-338): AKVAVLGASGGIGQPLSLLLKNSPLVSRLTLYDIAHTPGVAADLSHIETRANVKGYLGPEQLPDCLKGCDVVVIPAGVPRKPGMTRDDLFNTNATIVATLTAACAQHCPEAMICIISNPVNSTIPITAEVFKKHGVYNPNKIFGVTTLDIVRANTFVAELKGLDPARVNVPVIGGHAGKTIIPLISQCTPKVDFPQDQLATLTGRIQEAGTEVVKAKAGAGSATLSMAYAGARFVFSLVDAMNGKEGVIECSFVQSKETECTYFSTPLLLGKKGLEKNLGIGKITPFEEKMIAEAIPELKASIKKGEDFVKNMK
Protocol: as §1

phosphofructokinase = assay: Rat brain phosphofructokinase with RAP; format: biochemical; details: 20 μM RAP
Protocol: as §1

[3] = test system: lactate production from D-glucose in synaptosomes; assay: Lactate production from D-glucose in rat brain synaptosomes; format: cell-based
Protocol: FIG. 2 is a graphic presentation of inhibition of lactate production from D-glucose by rat brain postnuclear supernatant fraction and by synaptosoms incubated with RAP. Lactate production was determined for a 20-min incubation at 37° C. Values (expressed as % of the control rate) are mean±SD of 3-6 determinations. The control value was 8.1±0.9 nmol of lactate produced/min/mg protein, *P<0.05, **P<0.03 and ***P<0.005vs. control values.
Postnuclear supernatant fraction (containing the glycolytic enzymes) was prepared from rat brain according to the method of Lai et al (1984, supra). Rat brain synaptosomes were prepared according to the method of Lai et al (1980, Biochem. Pharmacol., 29:141-146). Lactate generated by these preparations in the presence of D-glucose was measured with lactate dehydrogenase as described by Lai et al (1984, supra), except that the concentrations of sodium phosphate buffer and nicotinamide used in the medium were respectively 5 and 20 mM. (In some cases where there was a carry over of appreciable RAP to the assay mix, ten times the recommended amount of lactate dehydrogenase was used and the effectiveness of the enzyme in converting lactate to pyruvate was checked by addition of lactate standards to the cuvette after the initial reaction was over).

[4] = Stability of pyruvate adducts in solution and on storage; format: physicochemical; details: neutral ph solution; neutral pH values; read-out: t1/2 of reversion to free pyruvate
Protocol: The procedure used was a modification of that of Everse et al (1971, supra) for the synthesis of the NAD-pyruvate adduct Sodium pyruvate (15 mg) and NAD^+ (or NAD^+ analogue) (100 mg) were dissolved in deaerated water. The pH was brought to 11.0 with concentrated NaOH. After standing at room temperature for one hour, the solution was applied to the top of a column of Whatman DE-52 (2×3 cm), washed with deaerated distilled water. The column was eluted with 30 ml of 25 mM ammonium bicarbonate at 4° C. Unreacted pyruvate, NAD^+ and NAD^+ analogues were eluted in this fraction. The highly-colored (yellow-orange) adducts were eluted with 5-6 ml of 25 mM ammonium bicarbonate containing 4% NaCl. The fraction was split into approximately 1 ml portions, flushed with nitrogen, and stored at -70° C. […] Nevertheless, under the slightly alkaline conditions of storage and low temperature, these adducts remained stable for at least 3 months as judged by their continued potency toward inhibition of lactate dehydrogenase and maintenance of absorbance at 340 nm. […] The presence of a reactive carbonyl function was monitored as follows: 0.2-0.3 μ mole of the adduct was added to 50 μl of 0.1% 2,4-dinitrophenylhdrazine in 2 M HCl. […] The absorbance at 430 nm was compared to equivalent amounts of pyruvate and NAD^+ analogue taken through the same procedure. […]

T1 sequence (Q99NA5 28-366): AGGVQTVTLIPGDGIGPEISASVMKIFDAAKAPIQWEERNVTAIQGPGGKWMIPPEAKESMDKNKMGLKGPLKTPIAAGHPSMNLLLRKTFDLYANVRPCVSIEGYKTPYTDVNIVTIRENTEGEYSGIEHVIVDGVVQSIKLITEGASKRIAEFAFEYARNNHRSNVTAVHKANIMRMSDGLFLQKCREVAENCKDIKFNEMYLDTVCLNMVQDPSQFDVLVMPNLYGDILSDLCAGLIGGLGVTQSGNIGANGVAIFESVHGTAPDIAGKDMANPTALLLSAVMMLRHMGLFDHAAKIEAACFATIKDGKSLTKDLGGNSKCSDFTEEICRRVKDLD
T1 sequence (Q68FX0 35-385 partner): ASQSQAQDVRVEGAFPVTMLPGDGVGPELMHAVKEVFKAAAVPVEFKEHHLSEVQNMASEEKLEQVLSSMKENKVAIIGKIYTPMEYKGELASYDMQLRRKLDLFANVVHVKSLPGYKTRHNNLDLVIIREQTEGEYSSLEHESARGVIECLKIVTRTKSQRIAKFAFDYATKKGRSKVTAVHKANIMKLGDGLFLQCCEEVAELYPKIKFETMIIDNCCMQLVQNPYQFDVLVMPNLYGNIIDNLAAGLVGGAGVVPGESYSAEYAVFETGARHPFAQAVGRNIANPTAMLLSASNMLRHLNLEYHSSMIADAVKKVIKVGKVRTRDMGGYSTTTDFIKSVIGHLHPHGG
T1 sequence (P41565 40-393 partner): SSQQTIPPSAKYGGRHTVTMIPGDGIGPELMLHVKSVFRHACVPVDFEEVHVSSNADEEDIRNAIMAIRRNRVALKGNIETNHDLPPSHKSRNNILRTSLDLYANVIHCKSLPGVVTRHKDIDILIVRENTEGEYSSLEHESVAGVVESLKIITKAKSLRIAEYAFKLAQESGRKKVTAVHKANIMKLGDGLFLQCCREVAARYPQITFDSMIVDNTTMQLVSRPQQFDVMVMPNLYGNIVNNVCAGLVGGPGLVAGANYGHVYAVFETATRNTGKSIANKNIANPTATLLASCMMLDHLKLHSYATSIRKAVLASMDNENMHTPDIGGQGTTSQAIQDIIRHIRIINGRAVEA

For `Nc1ncnc2c1ncn2[C@@H]1O[C@H](COP(=O)(O)OP(=O)(O)OC[C@H]2O[C@@H](N3C=CC(CC(=O)C(=O)O)C(C=O)=C3)[C@H](O)[C@@H]2O)[C@@H](O)[C@H]1O` (some centres unmarked) [RAP, 3(-4-(reduced 3-pyridinealdehyde-adeninedinucleotide))-pyruvate], the “effect on rat brain isocitrate dehydrogenase” value (isocitrate dehydrogenase) was “little or no effect; also recorded: did not inhibit”, the “effect on rat brain hexokinase” value (hexokinase) was “similarly unaffected; also recorded: did not inhibit” and the “effect on rat brain glutamate dehydrogenase” value (glutamate dehydrogenase) was “little or no effect”. The inhibition at 20 µM (glutamate dehydrogenase) was at most 20%, the inhibition at 20 µM [1] was at most 20% and the “effect on rat brain mitochondrial malate dehydrogenase” value [2] was “little or no effect”. For the same molecule, the inhibition at 20 µM [2] was at most 20%, the “effect on rat brain phosphofructokinase” value (phosphofructokinase) was “similarly unaffected” and the “inhibition of lactate production from glucose in synaptosomes compared with rat brain extracts” value [3] was “less effective”. The “inhibition of lactate production in synaptosomes” value ([3]; initial concentrations of 250-500 μM) was 15-30% and the half-life [4] was 1.5 h.
